The record followed here is patent US9445589B2, “Active compounds combinations comprising a lipo-chitooligosaccharide derivative and a nematicide, insecticidal or fungicidal compound” (Bayer CropScience AG, priority 2012, dated 2016).

The test system of this assay is Maize seedlings. Put plainly: Maize seedlings shoot weight (seed treatment, greenhouse). Type of assay: in vivo. On the procedure:
Maize seeds are grown in loamy sand in the greenhouse at 20 C and 70% humidity for 11 days. After 11 days seedlings were cut off above the soil and fresh weight was determined. Compounds are applied at the following concentration: Poncho™ (pesticidal product comprising clothianidin as active ingredient): 250 μg of clothianidin/kernel; VOTiVO™ (product based on the natural soil bacteria Bacillus firmus (strain I-1582): 50 μg/kernel; Compound A of formula (I): 0.01 μg/kernel. The test is evaluated 11 days after the application. 100% means shoot weight which corresponds to that of the untreated control. Efficacy means in this case the additional % of shoot weight in comparison to that of the untreated control.

Take `CCCCCC/C=C\CCCOc1cccc(C(=O)N[C@@H]2C(O[C@H]3C(O)C(NC(C)=O)C(OC4C(CO)O[C@@H](O[C@H]5C(O)C(NC(C)=O)C(OC6C(CO)OC(O)[C@@H](NC(C)=O)[C@@H]6O)O[C@H]5CO)[C@@H](NC(C)=O)[C@@H]4O)O[C@H]3CO)OC(CO)[C@@H](O)[C@@H]2O)c1` (stereo partly drawn) [Compound A of formula (I)]: under “additional % of shoot weight in comparison to untreated control, 11 days after application”, the Efficacy % was 7%. Also, where the note is “fresh weight after 11 days in loamy sand, greenhouse 20 C, 70% humidity, clothianidin 250 μg/kernel, VOTiVO 50 μg/kernel, Compound A 0.01 μg/kernel”, the “Seedling shoot weight (g) (Average on 3 replicates)” value turned out to be 15.3 g. The compound also returned a Found % (shoot weight relative to untreated control (100%), 11 days after application, same application rates) of 107%.
